The values that follow come from PubChem BioAssay (NCI).

The structures appear in SMILES notation.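 Test compounds were applied to cells in 96-well plates for 48 hours at 5 doses. TGI: total growth inhibition.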

Among the test systems are UO-31 renal; RPMI-8226 leukemia; HCC-2998 colon; SNB-75 CNS; KM12 colon; NCI-H226 lung; SF-295 CNS; OVCAR-8 ovarian; HOP-92 NSCLC; ACHN renal; SR leukemia; DU-145 prostate; T-47D breast; TK-10 renal; MDA-MB-231 breast; BT-549 breast; MDA-N; PC-3 prostate; HS 578T breast; 786-0 renal.
Assay in all cases: NCI anticancer screen, dose series, 48 h

Regarding `CC[C@]12C=CCN3CC[C@@]4(c5ccc(OC)cc5N(C)[C@H]4[C@@](O)(C(=O)OC)[C@@H]1OC(C)=O)[C@@H]32`, the TGI in the experiment with UO-31 renal is > 92.8 µM; in the experiment with RPMI-8226 leukemia, > 200 µM; in the experiment on HCC-2998 colon, > 200 µM; in the experiment on SNB-75 CNS, > 200 µM; in the experiment on KM12 colon, > 200 µM; in the experiment with NCI-H226 lung, > 200 µM. The TGI in the experiment with SF-295 CNS was > 200 µM; with OVCAR-8 ovarian it was > 11.2 µM; in the experiment on HOP-92 NSCLC, 132 µM.
On to `CC(C)CCN=c1cc2n(-c3ccc(Cl)cc3)c3ccccc3nc-2cc1Nc1ccc(Cl)cc1`, for which the TGI in the experiment on UO-31 renal was 18.9 µM; in the experiment with RPMI-8226 leukemia, 5.74 µM; in the experiment with HCC-2998 colon, 18.1 µM; in the experiment with SNB-75 CNS, > 91.4 µM; in the experiment on KM12 colon, > 41.2 µM; in the experiment with NCI-H226 lung, 20.7 µM. Further, the TGI in the experiment with SF-295 CNS was determined as 44.2 µM; in the experiment on OVCAR-8 ovarian, 33.7 µM; with HOP-92 NSCLC it was 16.8 µM.
As for `CC(=O)OC[C@H]1[C@@H]2C(CC[C@]13CO3)OC(=O)CC(C)[C@]2(C)CCc1ccoc1` (stereo partly specified), the TGI in the experiment on ACHN renal, in the experiment on UO-31 renal, in the experiment on SR leukemia, in the experiment with DU-145 prostate, in the experiment with T-47D breast and with TK-10 renal was > 100 µM throughout. The TGI in the experiment on MDA-MB-231 breast, with HCC-2998 colon, with BT-549 breast, in the experiment with KM12 colon, in the experiment with MDA-N and with NCI-H226 lung was > 100 µM throughout. Also, the TGI in the experiment on SF-295 CNS, with PC-3 prostate, in the experiment on OVCAR-8 ovarian, in the experiment on HOP-92 NSCLC and with HS 578T breast was > 100 µM each time.
In the case of `CC[N+](C)(CC)Cc1ccccc1[N+](=O)[O-]`, the TGI in the experiment with ACHN renal, in the experiment with UO-31 renal, in the experiment with RPMI-8226 leukemia, in the experiment with SR leukemia, with DU-145 prostate and in the experiment with T-47D breast was > 100 µM each time. The TGI with TK-10 renal, with MDA-MB-231 breast, in the experiment with BT-549 breast, in the experiment with SNB-75 CNS, in the experiment with KM12 colon and with 786-0 renal was > 100 µM in each case. For the same compound, the TGI in the experiment on MDA-N, in the experiment on NCI-H226 lung, with SF-295 CNS, in the experiment on PC-3 prostate, with OVCAR-8 ovarian and in the experiment on HOP-92 NSCLC was > 100 µM each time. The TGI in the experiment on HS 578T breast is > 100 µM.
Turning to `C=CCNc1ccc(C)cc1`, the TGI with ACHN renal, with UO-31 renal, in the experiment on SR leukemia, in the experiment with DU-145 prostate, in the experiment on T-47D breast and in the experiment with TK-10 renal was > 100 µM in each case. Also, the TGI in the experiment with MDA-MB-231 breast, in the experiment on HCC-2998 colon, in the experiment on SNB-75 CNS, with KM12 colon, in the experiment with MDA-N and in the experiment on NCI-H226 lung was > 100 µM throughout. The TGI in the experiment on SF-295 CNS, with PC-3 prostate, in the experiment on OVCAR-8 ovarian, in the experiment with HOP-92 NSCLC and with HS 578T breast was > 100 µM throughout.
Consider `Cc1cc(NS(=O)(=O)c2ccc(N=Nc3c(O)c(C(=O)O)cc4ccccc34)cc2)nc(C)n1`, for which the TGI in the experiment with ACHN renal, with UO-31 renal, in the experiment with RPMI-8226 leukemia, with SR leukemia, in the experiment on TK-10 renal and in the experiment on MDA-MB-231 breast was > 100 µM each time. In addition, the TGI with HCC-2998 colon, in the experiment with BT-549 breast, in the experiment on SNB-75 CNS, with KM12 colon, with 786-0 renal and in the experiment on NCI-H226 lung was > 100 µM throughout. For the same compound, the TGI in the experiment with SF-295 CNS, in the experiment with PC-3 prostate, in the experiment with OVCAR-8 ovarian, in the experiment on HOP-92 NSCLC and with HS 578T breast was > 100 µM in each case.
`C[N+](C)(N)CCC[N+](C)(C)N`: the TGI in the experiment with ACHN renal, in the experiment on UO-31 renal, with RPMI-8226 leukemia, with SR leukemia, with DU-145 prostate and in the experiment with T-47D breast was > 100 µM in each case. In addition, the TGI in the experiment on TK-10 renal, in the experiment on MDA-MB-231 breast, in the experiment with BT-549 breast, in the experiment with SNB-75 CNS, with KM12 colon and with 786-0 renal was > 100 µM in each case. The TGI with MDA-N, with NCI-H226 lung, with SF-295 CNS, in the experiment with PC-3 prostate, in the experiment on OVCAR-8 ovarian and in the experiment on HOP-92 NSCLC was > 100 µM in each case. Besides, the TGI with HS 578T breast was > 100 µM.
Turning to `CC(=O)[C@]1(O)Cc2c(O)c3c(c(O)c2C(OC2OC(C)C(O)C(O)C2F)C1)C(=O)c1ccccc1C3=O` (stereo partly specified), the TGI in the experiment with UO-31 renal came out at 0.0279 µM; with RPMI-8226 leukemia, 2.36 µM; in the experiment on DU-145 prostate, 45.8 µM; in the experiment on T-47D breast it was 7.8 µM; with TK-10 renal it was 71.3 µM; with MDA-MB-231 breast, 7.21 µM. Further, the TGI is 2.3 µM in the experiment with HCC-2998 colon; 2.44 µM in the experiment with BT-549 breast; 0.837 µM in the experiment on SNB-75 CNS; 5.64 µM with KM12 colon; > 37.1 µM in the experiment on 786-0 renal; 2.67 µM in the experiment with MDA-N. For the same compound, the TGI is 0.341 µM in the experiment with NCI-H226 lung; 0.324 µM with SF-295 CNS; 3.3 µM with PC-3 prostate; 16.1 µM with OVCAR-8 ovarian; 3.92 µM in the experiment on HOP-92 NSCLC; 1.62 µM in the experiment with HS 578T breast.
As for `CCOCNC(=O)N(COCC)COCC`, the TGI in the experiment with ACHN renal, in the experiment with UO-31 renal, in the experiment on RPMI-8226 leukemia, in the experiment with HCC-2998 colon, with SNB-75 CNS and in the experiment on KM12 colon was > 100 µM each time. Moreover, the TGI in the experiment on NCI-H226 lung, in the experiment on SF-295 CNS and with OVCAR-8 ovarian was > 100 µM each time.
For `Cc1cc(C)cc(Nc2nnc3n2S(=O)(=O)c2cc(C#N)c(Cl)cc2S3)c1`, the TGI is 10.7 µM in the experiment with ACHN renal; 17 µM in the experiment on UO-31 renal; 3.42 µM in the experiment on SR leukemia; 12.5 µM in the experiment on DU-145 prostate; 31.6 µM in the experiment on T-47D breast; 12.8 µM with MDA-MB-231 breast. In addition, the TGI is 5.98 µM in the experiment with BT-549 breast; 7.56 µM in the experiment with SNB-75 CNS; 4.46 µM in the experiment with KM12 colon; > 100 µM in the experiment on 786-0 renal; 26.1 µM in the experiment on NCI-H226 lung; 9.2 µM in the experiment with SF-295 CNS. Moreover, the TGI with HS 578T breast came out at 15.8 µM.
`O=[N+]([O-])c1ccccc1N=Nc1c(O)sc2ccccc12`: the TGI with ACHN renal, in the experiment with UO-31 renal, in the experiment with RPMI-8226 leukemia, with SR leukemia, in the experiment with DU-145 prostate and in the experiment with T-47D breast was > 100 µM each time. The TGI in the experiment on TK-10 renal was > 100 µM; in the experiment on HCC-2998 colon, > 100 µM; in the experiment with SNB-75 CNS, 79.5 µM; with KM12 colon, > 100 µM; in the experiment with MDA-N, > 100 µM; with NCI-H226 lung, > 100 µM. Besides, the TGI in the experiment on SF-295 CNS, in the experiment with PC-3 prostate, in the experiment with OVCAR-8 ovarian, with HOP-92 NSCLC and with HS 578T breast was > 100 µM throughout.
Turning to `COC(=O)C1(c2ccc(N(C)C)cc2OC)CCCN(C(=O)Oc2ccccc2[N+](=O)[O-])CCc2c1[nH]c1ccccc21` (stereo unspecified), the TGI with UO-31 renal, in the experiment with SR leukemia, in the experiment with DU-145 prostate, in the experiment with T-47D breast, in the experiment on TK-10 renal and with MDA-MB-231 breast was > 100 µM each time. For the same compound, the TGI with HCC-2998 colon, with BT-549 breast, in the experiment on SNB-75 CNS, in the experiment on KM12 colon, with MDA-N and with NCI-H226 lung was > 100 µM each time. In addition, the TGI in the experiment with SF-295 CNS, in the experiment on PC-3 prostate, in the experiment on OVCAR-8 ovarian, in the experiment with HOP-92 NSCLC and with HS 578T breast was > 100 µM in each case.
In the case of `O=c1c2ccccc2nnn1-c1n[nH]c2ccccc12`, the TGI with ACHN renal, with UO-31 renal, in the experiment on RPMI-8226 leukemia, in the experiment with DU-145 prostate, in the experiment on T-47D breast and with TK-10 renal was > 100 µM each time. The TGI in the experiment with MDA-MB-231 breast, with HCC-2998 colon, in the experiment with BT-549 breast, in the experiment on SNB-75 CNS, in the experiment with KM12 colon and in the experiment on 786-0 renal was > 100 µM in each case. The TGI in the experiment on SF-295 CNS, in the experiment with PC-3 prostate, with HOP-92 NSCLC and with HS 578T breast was > 100 µM each time.
For the compound `CN(CCCNc1ccc2ncn3c4ccccc4c(=O)c1c23)CCCN1C(=O)c2cccc3cc([N+](=O)[O-])cc(c23)C1=O`, the TGI turned out to be 1.21 µM in the experiment on ACHN renal; 2.26 µM in the experiment on UO-31 renal; 3.42 µM in the experiment on T-47D breast; 0.156 µM in the experiment on TK-10 renal; 1.26 µM with MDA-MB-231 breast; 0.0916 µM in the experiment on HCC-2998 colon. Further, the TGI amounted to 2.01 µM in the experiment on BT-549 breast; 1.81 µM with SNB-75 CNS; 1.36 µM with KM12 colon; 2.01 µM in the experiment with MDA-N; 1.55 µM in the experiment with NCI-H226 lung; 1.42 µM with SF-295 CNS. Also, the TGI in the experiment with OVCAR-8 ovarian was determined as 1.86 µM; in the experiment with HOP-92 NSCLC it was 6.39 µM; in the experiment on HS 578T breast, 2.42 µM.
With `COc1ccc2c(c1)CCCc1cn[nH]c1-2`, the TGI in the experiment on UO-31 renal, in the experiment with HCC-2998 colon, in the experiment on SNB-75 CNS, in the experiment on KM12 colon, in the experiment with NCI-H226 lung and in the experiment with SF-295 CNS was > 100 µM in each case. The TGI with OVCAR-8 ovarian and in the experiment on HOP-92 NSCLC was > 100 µM in each case.
Consider `CN(C)CC(CN(C)C)c1ccccn1`, for which the TGI in the experiment on ACHN renal, in the experiment with UO-31 renal, with RPMI-8226 leukemia, in the experiment with SR leukemia, in the experiment with TK-10 renal and in the experiment with MDA-MB-231 breast was > 100 µM throughout. Moreover, the TGI in the experiment with BT-549 breast, with KM12 colon, in the experiment with 786-0 renal, in the experiment on MDA-N, in the experiment on NCI-H226 lung and in the experiment with SF-295 CNS was > 100 µM each time. In addition, the TGI in the experiment on PC-3 prostate, in the experiment with OVCAR-8 ovarian, with HOP-92 NSCLC and in the experiment with HS 578T breast was > 100 µM in each case.
